Source: ChEMBL document CHEMBL3045826, “Synthesis of new derivatives of 2,2-dimethyl-2,3-dihydro-7-benzo[b]furanol with potential antimicrobial activity” (Med Chem Res, 2009)
≈ marks a conversion by molar mass, not a printed value. Calls of active or inactive are those of the source. The rule behind the calls is not given here.

Columns and labels:
[1] = test system: Bacillus subtilis; assay: Antibacterial activity against Bacillus subtilis ATCC 6633 after 18 hr; format: functional; details: ATCC 6633, 18 h
[2] = test system: Staphylococcus aureus; assay: Antibacterial activity against Staphylococcus aureus ATCC 6538P at 400 ug after 18 hr by disk diffusion method; format: functional; details: for zone of inhibition at 400 µg/disc: read-out: DIZ
[3] = test system: Proteus vulgaris; assay: Antibacterial activity against Proteus vulgaris NCTC 4635 at 400 ug after 18 hr by disk diffusion method; format: functional; details: for zone of inhibition at 400 µg/disc: NCTC 4635, 18 h, read-out: DIZ
[4] = test system: Pseudomonas aeruginosa; assay: Antibacterial activity against Pseudomonas aeruginosa ATCC 15442 at 400 ug after 18 hr by disk diffusion method; format: functional; details: for zone of inhibition at 400 µg/disc: ATCC 15442, 18 h, read-out: DIZ
[5] = test system: Candida parapsilosis; assay: Antifungal activity against Candida parapsilosis ATCC 22019 at 400 ug after 24 to 48 hr by disk diffusion method; format: functional; details: for zone of inhibition at 400 µg/disc: Lodderomyces parapsilosis, read-out: DIZ
[6] = test system: Pseudomonas aeruginosa; assay: Antibacterial activity against Pseudomonas aeruginosa NCTC 6749 after 18 hr; format: functional, organism-based
[7] = test system: Staphylococcus aureus; assay: Antibacterial activity against Staphylococcus aureus ATCC 29213 after 18 hr; format: functional; details: ATCC 29213, 18 h
[8] = test system: Candida parapsilosis; assay: Antifungal activity against Candida parapsilosis ATCC 22019 after 18 hr; format: functional; details: Lodderomyces parapsilosis, ATCC 22019, 18 h
[9] = test system: Escherichia coli; assay: Antibacterial activity against Escherichia coli ATCC 10538 after 18 hr; format: functional, organism-based
[10] = test system: Pseudomonas aeruginosa; assay: Antibacterial activity against Pseudomonas aeruginosa NCTC 6749 at 400 ug after 18 hr by disk diffusion method; format: functional, organism-based
[11] = test system: Staphylococcus aureus; assay: Antibacterial activity against Staphylococcus aureus ATCC 29213 at 400 ug after 18 hr by disk diffusion method; format: functional; details: for zone of inhibition at 400 µg/disc: ATCC 29213, 18 h, read-out: DIZ
[12] = test system: Bacillus subtilis; assay: Antibacterial activity against Bacillus subtilis ATCC 6633 at 400 ug after 18 hr by disk diffusion method; format: functional; details: for zone of inhibition at 400 µg/disc: ATCC 6633, 18 h, read-out: DIZ
[13] = test system: Bordetella bronchiseptica; assay: Antibacterial activity against Bordetella bronchiseptica ATCC 461 at 400 ug after 18 hr by disk diffusion method; format: functional
[14] = test system: Pseudomonas aeruginosa; assay: Antibacterial activity against Pseudomonas aeruginosa ATCC 15442 after 18 hr; format: functional; details: ATCC 15442, 18 h
[15] = test system: Enterococcus hirae; assay: Antibacterial activity against Enterococcus hirae ATCC 10541 at 400 ug after 18 hr by disk diffusion method; format: functional; details: for zone of inhibition at 400 µg/disc: ATCC 10541, 18 h, read-out: DIZ
[16] = test system: Escherichia coli; assay: Antibacterial activity against Escherichia coli ATCC 25922 at 400 ug after 18 hr by disk diffusion method; format: functional
[17] = test system: Staphylococcus aureus; assay: Antibacterial activity against Staphylococcus aureus ATCC 25923 at 400 ug after 18 hr by disk diffusion method; format: functional; details: for zone of inhibition at 400 µg/disc: ATCC 25923, 18 h, read-out: DIZ
[18] = test system: Proteus vulgaris; assay: Antibacterial activity against Proteus vulgaris NCTC 4635 after 18 hr; format: functional; details: NCTC 4635, 18 h
[19] = test system: Escherichia coli; assay: Antibacterial activity against Escherichia coli NCTC 8196 at 400 ug after 18 hr by disk diffusion method; format: functional
[20] = test system: Escherichia coli; assay: Antibacterial activity against Escherichia coli ATCC 10538 at 400 ug after 18 hr by disk diffusion method; format: functional
[21] = test system: Escherichia coli; assay: Antibacterial activity against Escherichia coli ATCC 25922 after 18 hr; format: functional, organism-based
[22] = test system: Escherichia coli; assay: Antibacterial activity against Escherichia coli NCTC 8196 after 18 hr; format: functional, organism-based
[23] = test system: Candida albicans; assay: Antifungal activity against Candida albicans ATCC 90028 after 18 hr; format: functional; details: ATCC 90028, 18 h
[24] = test system: Staphylococcus aureus; assay: Antibacterial activity against Staphylococcus aureus ATCC 25923 after 18 hr; format: functional; details: ATCC 25923, 18 h
[25] = test system: Candida albicans; assay: Antifungal activity against Candida albicans ATCC 90028 at 400 ug after 24 to 48 hr by disk diffusion method; format: functional; details: for zone of inhibition at 400 µg/disc: read-out: DIZ
[26] = test system: Enterococcus hirae; assay: Antibacterial activity against Enterococcus hirae ATCC 10541 after 18 hr; format: functional; details: ATCC 10541, 18 h
[27] = test system: Staphylococcus aureus; assay: Antibacterial activity against Staphylococcus aureus ATCC 6538P after 18 hr; format: functional
[28] = test system: Bordetella bronchiseptica; assay: Antibacterial activity against Bordetella bronchiseptica ATCC 461 after 18 hr; format: functional, organism-based
[29] = test system: Candida albicans; assay: Antifungal activity against Candida albicans ATCC 10231 after 18 hr; format: functional; details: ATCC 10231, 18 h
[30] = test system: Staphylococcus aureus; assay: Antibacterial activity against Staphylococcus aureus NCTC 4163 at 400 ug after 18 hr by disk diffusion method; format: functional; details: for zone of inhibition at 400 µg/disc: NCTC 4163, 18 h, read-out: DIZ
[31] = test system: Staphylococcus aureus; assay: Antibacterial activity against Staphylococcus aureus NCTC 4163 after 18 hr; format: functional; details: NCTC 4163, 18 h
[32] = test system: Candida albicans; assay: Antifungal activity against Candida albicans ATCC 10231 at 400 ug after 24 to 48 hr by disk diffusion method; format: functional; details: for zone of inhibition at 400 µg/disc: read-out: DIZ
[33] = test system: Human immunodeficiency virus 1; assay: Antiviral activity against Human immunodeficiency virus 1 infected human MT4 cells assessed as inhibition of virus-induced cytopathogenicity after 4 days by MTT assay; format: functional, organism-based; details: Human immunodeficiency virus 1, MT4, 96 h
[34] = Cytotoxicity against Homo sapiens (human) MT4 cells after 96 hr by MTT assay; format: cell-based

MIC [1] [µg/mL] | MIC [6] | MIC [7] [µg/mL] | MIC [8] [µg/mL] | MIC [9] | MIC [14] [µg/mL] | MIC [18] [µg/mL] | MIC [21] | MIC [22] | SMILES | zone of inhibition at 400 µg/disc [2] [mm] | zone of inhibition at 400 µg/disc [3] [mm] | zone of inhibition at 400 µg/disc [4] [mm] | zone of inhibition at 400 µg/disc [5] [mm] | diameter of the inhibition zone (DIZ) [10] | zone of inhibition at 400 µg/disc [11] [mm] | zone of inhibition at 400 µg/disc [12] [mm] | zone of inhibition at 400 µg/disc [15] [mm] | diameter of the inhibition zone (DIZ) [16] | zone of inhibition at 400 µg/disc [17] [mm] | diameter of the inhibition zone (DIZ) [20] | other results
12.5 (≈ 24.2 µM) | inactive | 25 (≈ 48.4 µM) | 100 (≈ 194 µM) | inactive | 12.5 (≈ 24.2 µM) | 12.5 (≈ 24.2 µM) | inactive | inactive | CC(C)NCC(O)COc1c(Br)c(Br)c(Br)c2c1OC(C)(C)C2 (centres undefined) | 21 | 24 | 22 | 17 | inactive | 20 | 23 | 17 | inactive | 18 | inactive | zone of inhibition at 400 µg/disc ([13]; ATCC 461, 18 h, read-out: DIZ): 11 mm; zone of inhibition at 400 µg/disc ([19]; NCTC 8196, 18 h, read-out: DIZ): 11 mm; MIC [23]: 200 µg/mL (≈ 388 µM); MIC [24]: 25 µg/mL (≈ 48.4 µM); zone of inhibition at 400 µg/disc [25]: 15 mm; MIC [26]: 25 µg/mL (≈ 48.4 µM); MIC [27]: 25 µg/mL (≈ 48.4 µM); MIC [28]: inactive; MIC [29]: 200 µg/mL (≈ 388 µM); zone of inhibition at 400 µg/disc [30]: 20 mm; MIC [31]: 50 µg/mL (≈ 96.9 µM); zone of inhibition at 400 µg/disc [32]: 16 mm
12.5 (≈ 23.1 µM) | inactive | 100 (≈ 184 µM) | 100 (≈ 184 µM) | inactive | 25 (≈ 46.1 µM) | 50 (≈ 92.2 µM) | inactive | inactive | CC1(C)Cc2c(Br)c(Br)c(Br)c(OCC(O)CN3CCCCC3)c2O1 (centres undefined) | 17 | 20 | 20 | 18 | inactive | 16 | 19 | 17 | inactive | 16 | inactive | diameter of the inhibition zone (DIZ) [13]: inactive; diameter of the inhibition zone (DIZ) [19]: inactive; MIC [23]: 100 µg/mL (≈ 184 µM); MIC [24]: 50 µg/mL (≈ 92.2 µM); zone of inhibition at 400 µg/disc [25]: 18 mm; MIC [26]: 50 µg/mL (≈ 92.2 µM); MIC [27]: 50 µg/mL (≈ 92.2 µM); MIC [28]: inactive; MIC [29]: 100 µg/mL (≈ 184 µM); zone of inhibition at 400 µg/disc [30]: 18 mm; MIC [31]: 50 µg/mL (≈ 92.2 µM); zone of inhibition at 400 µg/disc [32]: 18 mm
12.5 (≈ 31.2 µM) | inactive | 25 (≈ 62.4 µM) | 200 (≈ 499 µM) | inactive | 12.5 (≈ 31.2 µM) | 12.5 (≈ 31.2 µM) | inactive | inactive | CC1(C)Cc2c(Br)c(Br)c(Br)c(O)c2O1 | 19 | 15 | 22 | 13 | inactive | 18 | 21 | 16 | inactive | 18 | inactive | EC50 [33]: > 60 µM; CC50 at 96 h [34]: 60 µM; diameter of the inhibition zone (DIZ) [13]: inactive; diameter of the inhibition zone (DIZ) [19]: inactive; MIC [23]: 200 µg/mL (≈ 499 µM); MIC [24]: 25 µg/mL (≈ 62.4 µM); zone of inhibition at 400 µg/disc [25]: 14 mm; MIC [26]: 50 µg/mL (≈ 125 µM); MIC [27]: 25 µg/mL (≈ 62.4 µM); MIC [28]: inactive; MIC [29]: 200 µg/mL (≈ 499 µM); zone of inhibition at 400 µg/disc [30]: 17 mm; MIC [31]: 25 µg/mL (≈ 62.4 µM); zone of inhibition at 400 µg/disc [32]: 13 mm
– | – | – | – | – | – | – | – | – | CC1(C)Cc2c(Br)c(Br)c(Br)c(OCC(O)CN3CCN(c4ccc(F)cc4)CC3)c2O1 (centres undefined) | – | – | – | – | inactive | – | – | – | inactive | – | inactive | diameter of the inhibition zone (DIZ) [2]: inactive; diameter of the inhibition zone (DIZ) [3]: inactive; diameter of the inhibition zone (DIZ) [4]: inactive; diameter of the inhibition zone (DIZ) [5]: inactive; diameter of the inhibition zone (DIZ) [11]: inactive; diameter of the inhibition zone (DIZ) [12]: inactive; diameter of the inhibition zone (DIZ) [13]: inactive; diameter of the inhibition zone (DIZ) [15]: inactive; diameter of the inhibition zone (DIZ) [17]: inactive; diameter of the inhibition zone (DIZ) [19]: inactive; diameter of the inhibition zone (DIZ) [25]: inactive; diameter of the inhibition zone (DIZ) [30]: inactive; diameter of the inhibition zone (DIZ) [32]: inactive
